Test system: Doxorubicin aptamer (DNA, aptamer) ACCATCTGTGTAAGGGGTAAGGGGTGGT
Assay: electrochemical aptamer-based sensor, square-wave voltammetry (KDM), Hill fit
Conditions: 37 °C; in serum; apparent; immobilised aptamer; 8 devices

Kd: 5 µM
Compound: COc1cccc2c1C(=O)c1c(O)c3c(c(O)c1C2=O)C[C@@](O)(C(=O)CO)C[C@@H]3O[C@H]1C[C@H](N)[C@H](O)[C@H](C)O1

Source: article PMC11838736 (2025)
